# Measurements published in patent US7138361B2, “Herbicidal heterocycles” (E. I. du Pont de Nemours and Company, priority 2000, dated 2006).
# Tests used:
# Type in all cases: in vivo
# [1] = test system: barnyardgrass (Echinochloa crus-galli); assay: Test C flooded paddy test; conditions: for Barnyardgrass plant response rating: Flooded Paddy, scale 0 to 100, 0 no effect, 100 complete control; for Plant response rating, Barnyardgrass: flooded paddy test, scale 0 to 100 (0 no effect, 100 complete control)
# Summary of the method: (§1)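 Each species was cultivated to 2 leaves in flooded paddy pots, then treated. After a greenhouse period of 12–14 days, the plants were scored visually relative to controls from 0 (no effect) to 100 (complete control).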
# [2] = test system: smallflower flatsedge (Cyperus difformis); assay: Test C flooded paddy test; conditions: for Flatsedge plant response rating: Flooded Paddy, scale 0 to 100, 0 no effect, 100 complete control; for Plant response rating, Flatsedge: flooded paddy test, scale 0 to 100 (0 no effect, 100 complete control)
# Summary of the method: as §1
# [3] = test system: duck salad (Heteranthera limosa); assay: Test C flooded paddy test; conditions: for Ducksalad plant response rating: Flooded Paddy, scale 0 to 100, 0 no effect, 100 complete control; for Plant response rating, Ducksalad: flooded paddy test, scale 0 to 100 (0 no effect, 100 complete control)
# Summary of the method: as §1
# [4] = test system: rice (Oryza saliva); assay: Test C flooded paddy test; conditions: for Rice plant response rating: Flooded Paddy, scale 0 to 100, 0 no effect, 100 complete control; for Plant response rating, Rice: flooded paddy test, scale 0 to 100 (0 no effect, 100 complete control)
# Summary of the method: as §1
# [5] = test system: corn (Zea mays); assay: Test B preemergence
# Summary of the method: (§2)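 Preemergence: seeds planted and treated with test chemicals in non-phytotoxic solvent with surfactant; postemergence on plants 2–18 cm (1- to 4-leaf stage). Kept in greenhouse 13–15 days, then visually rated against controls on a 0 (no effect) to 100 (complete control) scale.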
# [6] = test system: velvetleaf (Abutilon theophrasti); assay: Test B preemergence
# Summary of the method: as §2
# [7] = test system: cocklebur (Xanthium strumarium); assay: Test B preemergence
# Summary of the method: as §2
# [8] = test system: crabgrass (Digitaria sanguinalis); assay: Test B preemergence
# Summary of the method: as §2
# [9] = test system: Surinam grass (Brachiaria decumbens); assay: Test B preemergence
# Summary of the method: as §2
# [10] = test system: lambsquarters (Chenopodium album); assay: Test B preemergence
# Summary of the method: as §2
# [11] = test system: barnyardgrass (Echinochloa crus-galli); assay: Test B preemergence
# Summary of the method: as §2
# [12] = test system: pigweed (Amaranthus retroflexus); assay: Test B preemergence
# Summary of the method: as §2
# [13] = test system: giant foxtail (Setaria faberii); assay: Test B preemergence
# Summary of the method: as §2
# [14] = test system: rice (Oryza saliva); assay: Test B preemergence
# Summary of the method: as §2
# [15] = test system: morning glory (Ipomoea hederacea); assay: Test B preemergence
# Summary of the method: as §2
# [16] = test system: corn (Zea mays); assay: Test B postemergence
# Summary of the method: as §2
# [17] = test system: wild oat (Avena fatua); assay: Test B postemergence; conditions: Rate 125 g/ha, scale 0 to 100, 0 no effect, 100 complete control
# Summary of the method: as §2
# [18] = test system: velvetleaf (Abutilon theophrasti); assay: Test B postemergence; conditions: Rate 125 g/ha, scale 0 to 100, 0 no effect, 100 complete control
# Summary of the method: as §2
# [19] = test system: cocklebur (Xanthium strumarium); assay: Test B postemergence
# Summary of the method: as §2
# [20] = test system: crabgrass (Digitaria sanguinalis); assay: Test B postemergence; conditions: Rate 125 g/ha, scale 0 to 100, 0 no effect, 100 complete control
# Summary of the method: as §2
# [21] = test system: Surinam grass (Brachiaria decumbens); assay: Test B postemergence
# Summary of the method: as §2
# [22] = test system: blackgrass (Alopecurus myosuroides); assay: Test B postemergence
# Summary of the method: as §2
# [23] = test system: lambsquarters (Chenopodium album); assay: Test B postemergence; conditions: Rate 125 g/ha, scale 0 to 100, 0 no effect, 100 complete control
# Summary of the method: as §2
# [24] = test system: barnyardgrass (Echinochloa crus-galli); assay: Test B postemergence
# Summary of the method: as §2
# [25] = test system: wheat (Triticum aestivum); assay: Test B postemergence; conditions: Rate 125 g/ha, scale 0 to 100, 0 no effect, 100 complete control
# Summary of the method: as §2
# [26] = test system: pigweed (Amaranthus retroflexus); assay: Test B postemergence; conditions: Rate 125 g/ha, scale 0 to 100, 0 no effect, 100 complete control
# Summary of the method: as §2
# [27] = test system: giant foxtail (Setaria faberii); assay: Test B postemergence; conditions: Rate 125 g/ha, scale 0 to 100, 0 no effect, 100 complete control
# Summary of the method: as §2
# [28] = test system: morning glory (Ipomoea hederacea); assay: Test B postemergence; conditions: Rate 125 g/ha, scale 0 to 100, 0 no effect, 100 complete control
# Summary of the method: as §2
# [29] = Preemergence, Rate 500 g/ha, scale 0 to 100, 0 no effect, 100 complete control
# [30] = preemergence, Rate 125 g/ha, scale of 0 to 100 where 0 is no effect and 100 is complete control, 13 to 15 days
# [31] = Rate 125 g/ha, scale 0 to 100, 0 no effect, 100 complete control
# [32] = Rate 500 g/ha, scale 0 to 100, 0 is no effect, 100 is complete control, 13 to 15 days
compound,measurement,setting,value
CCOc1cccc(N2CCC(n3ccc(C(C)CC)n3)C2=O)c1 (centres unmarked) [Compound 126],Barnyardgrass plant response rating,[1]; Rate 250 g/ha,100
same,Barnyardgrass plant response rating,[1]; Rate 500 g/ha,100
same,"Plant response rating, Barnyardgrass",[1]; Rate 62 g/ha,35
same,"Plant response rating, Barnyardgrass",[1]; Rate 125 g/ha,100
same,Flatsedge plant response rating,[2]; Rate 250 g/ha,100
same,Flatsedge plant response rating,[2]; Rate 500 g/ha,100
same,"Plant response rating, Flatsedge",[2]; Rate 62 g/ha,100
same,"Plant response rating, Flatsedge",[2]; Rate 125 g/ha,100
same,Ducksalad plant response rating,[3]; Rate 250 g/ha,100
same,Ducksalad plant response rating,[3]; Rate 500 g/ha,100
same,"Plant response rating, Ducksalad",[3]; Rate 62 g/ha,60
same,"Plant response rating, Ducksalad",[3]; Rate 125 g/ha,100
same,Rice plant response rating,[4]; Rate 250 g/ha,20
same,Rice plant response rating,[4]; Rate 500 g/ha,60
same,"Plant response rating, Rice",[4]; Rate 62 g/ha,0
same,"Plant response rating, Rice",[4]; Rate 125 g/ha,20
same,"Plant response rating, Corn",[5]; [29],50
same,"Plant response rating, Corn",[5]; [30],30
same,"Plant response rating, Velvetleaf",[6]; [29],60
same,"Plant response rating, Velvetleaf",[6]; [30],0
same,"Plant response rating, Cocklebur",[7]; [29],70
same,"Plant response rating, Cocklebur",[7]; [30],50
same,"Plant response rating, Crabgrass",[8]; [29],100
same,"Plant response rating, Crabgrass",[8]; [30],100
same,"Plant response rating, Surinam grass",[9]; [29],100
same,"Plant response rating, Surinam grass",[9]; [30],100
same,"Plant response rating, Lambsquarters",[10]; [29],100
same,"Plant response rating, Lambsquarters",[10]; [30],100
same,"Plant response rating, Barnyardgrass",[11]; [29],100
same,"Plant response rating, Barnyardgrass",[11]; [30],100
same,"Plant response rating, Pigweed",[12]; [29],100
same,"Plant response rating, Pigweed",[12]; [30],100
same,"Plant response rating, Foxtail, Giant",[13]; [29],100
same,"Plant response rating, Foxtail, Giant",[13]; [30],100
same,"Plant response rating, Rice",[14]; [29],100
same,"Plant response rating, Rice",[14]; [30],70
same,"Plant response rating, Morningglory",[15]; [29],100
same,"Plant response rating, Morningglory",[15]; [30],70
same,"Plant response rating, Corn",[16]; [31],0
same,"Plant response rating, Corn",[16]; [32],0
same,"Plant response rating, Wild Oat",[17],0
same,"Plant response rating, Velvetleaf",[18],0
same,"Plant response rating, Cocklebur",[19]; [31],0
same,"Plant response rating, Cocklebur",[19]; [32],70
same,"Plant response rating, Crabgrass",[20],0
same,"Plant response rating, Surinam grass",[21]; [31],0
same,"Plant response rating, Surinam grass",[21]; [32],0
same,"Plant response rating, Blackgrass",[22]; [31],0
same,"Plant response rating, Blackgrass",[22]; [32],0
same,"Plant response rating, Lambsquarters",[23],100
same,"Plant response rating, Barnyardgrass",[24]; [31],0
same,"Plant response rating, Barnyardgrass",[24]; [32],80
same,"Plant response rating, Wheat",[25],0
same,"Plant response rating, Pigweed",[26],30
same,"Plant response rating, Foxtail, Giant",[27],0
same,"Plant response rating, Morningglory",[28],0
